Test results published in PMC11446937, “Bacteria from the Amycolatopsis genus associated with a toxic bird secrete protective secondary metabolites” (Nature Communications, 2024).

What was measured:
P. aeruginosa K799/61 = conditions: Suppl. Table 17; disc diffusion; 1 mg/mL in DMSO, 50 µl (50 µg) per disc; Cip 5 µg/mL (H2O/HCl); DMSO solvent control itself 12P; n=3
S. aureus 134/94 (MRSA) = assay: Disc-diffusion antimicrobial assay, clinically relevant indicator strains; conditions: Suppl. Table 17, 1 mg/mL in DMSO, 50 µl (50 µg) per disc, Cip 5 µg/mL (H2O/HCl), DMSO solvent control 0, n=3
S. aureus SG511 = assay: as above; conditions: Suppl. Table 17, 1 mg/mL in DMSO, 50 µl (50 µg) per disc, Cip 5 µg/mL (H2O/HCl), DMSO solvent control itself 11P, n=3
[1] = tested on: Sporobomyces salmonicolor 549; assay: as above; assay type: cell-based; conditions: Suppl. Table 17, 1 mg/mL in DMSO, 50 µl (50 µg) per disc, Amph B 10 µg/mL (DMSO/H2O), DMSO solvent control itself 13P, n=3
Description: (§1) Disc-diffusion antimicrobial activity assays against clinically relevant indicator strains.
(§2) Pure compounds (1 mg/mL in DMSO or 50% MeOH) were tested for their antimicrobial activity against a variety of bacterial and fungal indicator strains: B. subtilis 6633 (Bs), S. aureus SG511 (Sa1), E. coli SG458 (Ec), P. aeruginosa K799/61 (Pa), S. aureus 134/94 (MRSA) (Sa2), E. faecalis 1528 (VRSA) (Ef), Mycobacterium vaccae 10670 (Mv), Sporobomyces salmonicolor 549 (Ss), C. albicans C.A. (Ca), and Penicillium notatum JP36 (Pn). On each disc, 50 µl compound solution (50 µg) were applied. Antimicrobial activity was determined by measuring the inhibition zone surrounding the disc in mm (n=3).
(§3) Bs: B. subtilis 663, Sa1: S. aureus SG511, Ec: E. coli SG458, Pa: P. aeruginosa K799/61, Sa2: S. aureus 134/94 (MRSA), Ef: E. faecalis 1528 (VRSA), Mv: M. vaccae 10670, Ss: S. salmonicolor 549, Ca: C. albicans C.A., Pn: P. notatum JP36. P: colonies in the inhibition zone, p: single colonies in the inhibition zone. A: no to low inhibition, n.t.: not tested.
(§4) B. subtilis 663, Sa1: S. aureus SG511, Ec: E. coli SG458, Ca: C. albicans C.A., P: colonies in the inhibition zone, […]

Penicillium notatum JP36 = assay: as above; assay type: cell-based; conditions: Suppl. Table 17, 1 mg/mL in DMSO, 50 µl (50 µg) per disc, Amph B 10 µg/mL (DMSO/H2O), DMSO solvent control itself 12P, n=3
Description: as §1, §2, §3, §4

C. albicans C.A. = assay: as above; assay type: cell-based; conditions: Suppl. Table 17; disc diffusion; 1 mg/mL in DMSO, 50 µl (50 µg) per disc; Amph B 10 µg/mL (DMSO/H2O); DMSO solvent control 0; n=3
Description: as §1, §2, §3, §4

[2] = tested on: bacterial and fungal indicator strains; assay: Disc-diffusion antimicrobial activity, indicator strains overall; assay type: cell-based; conditions: disc-diffusion assays of isolated compounds against indicator strains incl. K. rhizophila and C. albicans
Description: For more experimental details, see Supplementary Methods and Supplementary Tables 16–18.
Droplet-collapsing test of lipopetides.
Pure compounds were dissolved in water (final concentration 10 mM). Then, 20 µl of the solutions were placed on a hydrophobic surface (parafilm ‘M’). Tensioactive properties were determined by the observation of collapsed […]
33,34 Tween-20 (10 mM) was used as tensioactive positive control. For better visualization, 0.0025% crystal violet was added to the droplet, having no effect on the […]
Supplementary Figure 88. Droplet-collapsing assay testing the tensioactive properties of lipopeptides (n=3). […]
epidermidis DSM103867, as well as the skin pathogenic yeast C. albicans SC5314. […] Antimicrobial activity was determined by measuring the inhibition zone surrounding the disc in mm. […]
as §2, with “On each disc, 50 µl compound solution (50 µg) were applied.” left out, “(n=3). […]” for “(n=3).”

B. subtilis 6633 = assay: Disc-diffusion antimicrobial assay, clinically relevant indicator strains; conditions: Suppl. Table 17, 1 mg/mL in DMSO, 50 µl (50 µg) per disc, Cip 5 µg/mL (H2O/HCl), DMSO solvent control itself 12P, n=3
E. faecalis 1528 = assay: as above; conditions: Suppl. Table 17, 1 mg/mL in DMSO, 50 µl (50 µg) per disc, Cip 5 µg/mL (H2O/HCl), DMSO solvent control itself 12p, n=3
E. coli SG458 = assay: as above; conditions: Suppl. Table 17, 1 mg/mL in DMSO, 50 µl (50 µg) per disc, Cip 5 µg/mL (H2O/HCl), DMSO solvent control itself 12P, n=3
[3] = tested on: Mycobacterium vaccae 10670; assay: as above; conditions: Suppl. Table 17, 1 mg/mL in DMSO, 50 µl (50 µg) per disc, Cip 5 µg/mL (H2O/HCl), DMSO solvent control itself 11P, n=3
ZIKV NS2B-NS3 = conditions: 200 µM
cruzain = assay: Fluorimetric protease inhibition assay; assay type: biochemical, Trypanosoma cruzi; conditions: 200 µM, 10 min, mean ± standard deviation, n=3
SARS-CoV PLpro = conditions: 200 µM; fluorimetric, 10 min; mean ± standard deviation, n=3
cathepsin B = assay: Fluorimetric protease inhibition assay; assay type: biochemical; conditions: 200 µM, 10 min, mean ± standard deviation, n=3
urokinase (uPA) = assay: Fluorimetric protease inhibition assay; assay type: biochemical; conditions: 200 µM, 10 min, mean ± standard deviation, n=3
cathepsin L = assay: Fluorimetric protease inhibition assay; assay type: biochemical; conditions: 200 µM, 10 min, mean ± standard deviation, n=3
sortase A (SrtA) = conditions: 200 µM
P. monteilii DSM1388 = assay: Disc-diffusion antimicrobial assay, ecologically relevant indicator strains; assay type: cell-based, Pseudomonas monteilii; conditions: Suppl. Table 16, pure compounds 10 mg/mL in DMSO, 5 µl per disc, control Cip 5 µg/mL (HCl), DMSO control 0, n=1
B. licheniformis DSM13 = assay: as above; assay type: cell-based, Bacillus licheniformis; conditions: Suppl. Table 16, pure compounds 10 mg/mL in DMSO, 5 µl per disc, control Cip 5 µg/mL (HCl), DMSO control 0, n=1
DENV2 NS2B-NS3 = assay: Fluorimetric protease inhibition assay; assay type: biochemical; conditions: 200 µM, 10 min, mean ± standard deviation, n=3
rhodesain = conditions: 200 µM
[4] = tested on: B. thuringiensis DSM104061; assay: Disc-diffusion antimicrobial assay, ecologically relevant indicator strains; assay type: cell-based, Bacillus thuringiensis; conditions: Suppl. Table 16, pure compounds 10 mg/mL in DMSO, 5 µl per disc, control Cip 5 µg/mL (HCl), DMSO control 0, n=1
K. rhizophila DSM11926 = assay: as above; assay type: cell-based, Kocuria rhizophila; conditions: Suppl. Table 16, pure compounds 10 mg/mL in DMSO, 5 µl per disc, control Cip 5 µg/mL (HCl), DMSO control 0, n=1
SARS-CoV2 Mpro = conditions: 200 µM; fluorimetric, 10 min; mean ± standard deviation, n=3
C. albicans SC5314 = assay: Disc-diffusion antimicrobial assay, ecologically relevant indicator strains; assay type: cell-based, Candida albicans; conditions: Suppl. Table 16, pure compounds 10 mg/mL in DMSO, 5 µl per disc, control Amph B 10 µg/mL (DMSO/H2O), DMSO control 0, n=1

Row | Compound | inhibition zone, Pa (P. aeruginosa K799/61) | inhibition zone, Sa2 (S. aureus 134/94 (MRSA)) [mm] | inhibition zone, Sa1 (S. aureus SG511) [mm] | inhibition zone, Ss [1] | inhibition zone, Pn (Penicillium notatum JP36) | inhibition zone, Ca (C. albicans C.A.) [mm] | antimicrobial activity (in words) [2] | inhibition zone, Bs (B. subtilis 6633) [mm] | inhibition zone, Ef (E. faecalis 1528) | inhibition zone, Ec (E. coli SG458) | inhibition zone, Mv [3] | further results
1 | Demiguisin [Compound 7] | 0 mm | 0 | 0 | 0 mm | 0 mm | 0 | no antimicrobial effects | 0 | 0 mm | 0 mm | 0 mm | 
2 | Pachycephalamide F [Compound 6] | 18P | 0 | 0 | 23p | 13p | 0 |  | 0 | 13p | 13P | 13p | Protease inhibition rate, ZIKV (ZIKV NS2B-NS3): 22.62 ± 1.19; Protease inhibition rate, Cruzain (cruzain): 60.52 ± 3.73%; Protease inhibition rate, PLpro (SARS-CoV) (SARS-CoV PLpro): 0 ± 0%; Protease inhibition rate, Cathepsin B (cathepsin B): 57.57 ± 11.52%; Protease inhibition rate, uPA (urokinase (uPA)): 0 ± 0%; Protease inhibition rate, Cathepsin L (cathepsin L): 58.30 ± 6.91%; Protease inhibition rate, SrtA (sortase A (SrtA)): 20.39 ± 3.94; inhibition zone, Pm (P. monteilii DSM1388): 0 mm; inhibition zone, Bl (B. licheniformis DSM13): 0 mm; Protease inhibition rate, DENV2 (DENV2 NS2B-NS3): 18.47 ± 1.66%; Protease inhibition rate, Rhodesain (rhodesain): 53.72 ± 0.31; inhibition zone, Bt [4]: 0 mm; inhibition zone, Kr (K. rhizophila DSM11926): 10 mm; Protease inhibition rate, Mpro (SARS-CoV2) (SARS-CoV2 Mpro): 6.92 ± 5.97%; inhibition zone, Ca2 (C. albicans SC5314): 0 mm
3 | C[C@H]1CN2C(=O)/C=C/C=C/C=C/[C@@](C)(O)C(O[C@@H]3OC[C@@H](O)[C@H](O)[C@H]3N)\C=C/C=C/C=C/C=C\[C@@H]2[C@@H]1O (stereo partly shown) [Compound 8, ciromicin A, reference compound] |  |  |  |  |  |  | antifungal and antibacterial effects |  |  |  |  | 
